{
  "source": "patent US20200239587A1",
  "about": "“SENSITIZATION OF TUMORS TO THERAPIES THROUGH ENDOGLIN ANTAGONISM” (Cedars-Sinai Medical Center, priority 2016, published 2020)",
  "type_in_all_cases": "cell-based, human",
  "key": {"[1]": {"system": "NRF1, MTFA, and CPT1C in 22Rv1 cells", "experiment": "mRNA expression of PGC1α target genes", "details": "radiation vs radiation plus TRC105; p<0.001", "protocol": "(§1) FIGS. 24A-24D depict that PGC1α and mitochondrial biogenesis are regulated by BMP/CD105. 22Rv1 cells were incubated with IgG or TRC105 with or without 4 Gy irradiation. All measurements were made 72 hours post radiation. FIG. 24A) Western blot for whole cell lysate, nuclear and cytoplasmic fractions were independently analyzed for PGC1α expression. Loading controls included β-actin (whole cell), lamin B (nuclear marker), and Rho A (cytoplasm marker). FIG. 24B) Immunofluorescent localization of PGC1α was visualized with DAPI nuclear counterstain. FIG. 24C) mRNA expression of PGC1α target genes, NRF1, MTFA, and CPT1C was measured. mRNA expression was normalized to GAPDH and untreated IgG 0 Gy. FIG. 24D) Mitochondrial DNA (mtDNA) was measured from total DNA extracts and normalized to nuclear DNA and compared to untreated IgG 0 Gy. Data are reported as means+/−S.D. of 3 independent experiments. (***p<0.001, ****p<0.0001).\nTotal RNA was extracted using the RNeasy kit (Qiagen). 1 μg RNA was used for cDNA synthesis using iSCRIPT cDNA synthesis kit (1708891, Bio-Rad). Quantitative RT-PCR was performed with 5 replicates using the Step One Real-Time PCR system (Applied Biosystems). […] For RNA-sequencing, Ion Proton AmpliSeq Transcriptome RNA Sequencing was performed achieving an average of 3M reads. We mapped an average of 88% of the reads to the human genome with Torrent Suite version 4.4.2."}, "PC3": {"system": "PC3", "experiment": "Clonogenic survival assay with radiation", "details": "p53 null prostate cancer cell line", "protocol": "Assays were performed on cell lines with p53 null prostate cancer cell line, FIG. 23A) PC3 and two p53 mutant pancreatic cancer cell lines, FIG. 23B) MIAPACA-2 and FIG. 23C) HPAF-II with indicated doses of radiation. Breast cancer cell lines with intact p53, FIG. 23D) MCF7 and mutant yet functional p53, FIG. 23E) MDA-MB23 were however radio-sensitized by the 1 μg/ml TRC105."}, "PGC1α in 22Rv1 cells": {"system": "PGC1α in 22Rv1 cells", "experiment": "PGC1α expression and sub-cellular localization", "details": "4Gy", "protocol": "as §1"}, "[2]": {"system": "CW22Rv1 cells in 3D co-culture with mouse prostatic fibroblasts", "experiment": "3D co-culture epithelial proliferation, EpCam and Ki-67 FACS", "protocol": "A modified version of the 3D organotypic co-culture system was performed in a collagen matrix similar to that previously reported (Stark et al., 1999, J Invest Dermatol 112, 681-691). Collagen matrix gels were prepared by mixing five volumes of rat tail collagen I with two volumes of matrigel (NCI), one volume of 10× DMEM medium (GE Healthcare Life Sciences), and one volume of FBS (Atlanta Biologicals), Rv1 and primary mouse prostatic fibroblasts were combined in a 1:3 ratio. Nylon squares were coated with collagen and placed on metal grids in a 6-well plate. Gel plugs (150 μl) were transferred onto the nylon squares and media was added to the level of the nylon mesh. After 72 hours, the cells were dissociated from the matrix with collagenase and dispersed for FACS analysis.\nFACS experiments were performed with eBiosciences antibodies: anti-human Stro-1-FITC (340105), anti-human CD90-PE (12-0909-42), anti-human CD105-APC (17-1057-41), anti-mouse CD105-APC (17-1051-82), anti-human CD117-PE-Cy7 (15-1178-41), anti-human Ki67-PECy7 (25-5699-41), and anti-human EpCAM-PE (12-9326-41). All events were acquired on a BD LSRII flow cytometer in the Cedars-Sinai Medical Center FACS core installed with BD FACSDiva software. Files were analyzed using FlowJo software v10.2. EpCAM positive cells were used to identify the CW22Rv1 epithelia in three-dimensional (3D) co-cultures and further gated for CD105 or Ki67 positive cells.\nCW22Rv1, C42B, and PC3 cells from ATCC were expanded as directed. Prostatectomy specimens from Cedars-Sinai Medical Center or the Greater Los Angeles Veterans Affairs were cultured to generate NAF and CAF cells using the same method, as C57BL/6 mouse wild-type prostatic fibroblasts were grown as previously reported (Franco et al., 2011, Cancer research 71, 1272-1281; Kiskowski et al., 2011, Cancer research 68, 4709-4718). TRC105 and M1043 were provided by TRACON Pharmaceuticals, Inc. (San Diego, Calif.). Enzalutamide (Xtandi) was purchased from Medivation (San Francisco, Calif.)."}, "[3]": {"system": "BMP dependent CD105 signaling in 22Rv1", "experiment": "BMP-stimulated phosphorylated-SMAD1/5 and ID1 expression", "details": "stimulated with 50 ng/mL BMP", "protocol": "FIG. 18A) Cell surface CD105 expression was measured in PC3, C42b, and 22Rv1 72 hours after 4 Gy irradiation treatment by FACS analysis and compared to cells not irradiated (control). FIG. 18B) Cell surface CD105 expression was measured in cell lines following a dose range of irradiation (0, 2, 4, or 6 Gy). FIG. 18C) The durability of cell surface CD105 expression in 22Rv1 was determined 0, 0.5, 4, 8, 24, 48, 72, 120, and 168 hours following 4 Gy irradiation. CD105 cell surface expression fold change was normalized to levels expressed prior to irradiation. FIG. 18D) Western blot for phosphorylated-Smad1/5 was measured in CW22Rv1 cells in the presence or absence of serum starvation and treatment with 50 ng/ml BMP4 or 1 μg/ml TRC105. β-actin expression served as the loading control. FIG. 18E) Annexin-V expression was measured in 22Rv1 cells by FACS analysis 5 days following 4 Gy irradiation in the presence and absence of TRC105. FIG. 18F) Clonogenic assay was measured 10 days following irradiation of CW22Rv1 and C42b cells in a dose range of 0 to 6 Gy in the presence of 1 μg/ml IgG or TRC105. […]\nTotal RNA was extracted using the RNeasy kit (Qiagen). […] Quantitative RT-PCR was performed with 5 replicates using the Step One Real-Time PCR system (Applied Biosystems). […] For RNA-sequencing, Ion Proton AmpliSeq Transcriptome RNA Sequencing was performed achieving an average of 3M reads. […]"}, "mtDNA in 22Rv1 cells": {"system": "mtDNA in 22Rv1 cells", "experiment": "Mitochondrial DNA quantitation", "details": "radiation in the presence of TRC105; p<0.0001", "protocol": "as §1"}},
  "data": [
    {"substance": "TRC105: partially humanized monoclonal antibody that blocks BMP signaling; human-specific CD105 (endoglin) neutralizing antibody from Tracon Pharmaceuticals", "values": [
      {"measurement": "mRNA expression of NRF1, MTFA, and CPT1C", "setting": "[1]", "result": "significantly increased with radiation compared to that in the presence of TRC105"},
      {"measurement": "radiation sensitivity, clonogenic survival", "setting": "PC3", "result": "no evidence of radiation sensitization"},
      {"measurement": "radiation-induced nuclear translocation of PGC1α", "setting": "PGC1α in 22Rv1 cells; 72 hours", "result": "prevented radiation-induced nuclear translocation of PGC1α"},
      {"measurement": "PGC1α expression, whole cell lysate", "setting": "PGC1α in 22Rv1 cells; IgG or TRC105, 72 hours", "result": "no effect on PGC1α expression"},
      {"measurement": "epithelial proliferation, antibody alone", "setting": "[2]; compared to IgG control, 1 μg/mL, 72 hours", "result": "did not change epithelial proliferation"},
      {"measurement": "enzalutamide-induced epithelial proliferation, single antibody", "setting": "[2]; enzalutamide plus M1043 or TRC105", "result": "did not alter enzalutamide-induced epithelial proliferation"},
      {"measurement": "epithelial proliferation, enzalutamide with both M1043 and TRC105", "setting": "[2]; triple combination", "result": "restored epithelial proliferation to that of control"},
      {"measurement": "minimum dose that effectively blocked phosphorylated-SMAD1/5 activation and expression of ID1", "setting": "[3]", "result": 1, "unit": "µg/mL"},
      {"measurement": "mtDNA", "setting": "mtDNA in 22Rv1 cells", "result": "dramatic down regulation of mtDNA"}
    ]}
  ]
}
